In this experiment the target is neuraminidase of Tamiflu-resistant novel influenza virus (point mutation H→Y) (Influenza A virus, UniProt C3W5S3, H275Y).

Results on four compounds are retold here after patent publication US20120046353A1 (priority 2010, published 2012).

Take `COc1c(C)c(O)c(C)c(O)c1C(=O)/C=C/c1ccc(O)cc1` [Compound 4, 4,2′,4′-trihydroxy-6′-methoxy-3′,5′-dimethylchalcone]: the “Inhibitory activity against neuraminidase of Tamiflu-resistant novel influenza virus, in words” value is “excellent inhibitory activity”. The same measure for `COc1c(C)c(O)c(C)c(O)c1C(=O)/C=C/c1ccccc1` [Compound 5, 2′,4′-dihydroxy-6′-methoxy-3′,5′-dimethylchalcone]: “excellent inhibitory activity”; for `COc1cc(O)c(C)c(O)c1C(=O)/C=C/c1ccccc1` [Compound 8, 2′,4′-dihydroxy-3′-methyl-6′-methoxychalcone]: “excellent inhibitory activity”. In the case of `COc1c(C)c(O)c(C)c(O)c1C(=O)/C=C/c1ccccc1O` [Compound 14, 2,2′,4′-trihydroxy-6′-methoxy-3′,5′-dimethylchalcone] it was “excellent inhibitory activity”.
